Measured values: PubChem BioAssay AID1259411 (Chemical Carcinogenesis Research Information System (CCRIS), 2018)
Calls of active or inactive are those of the source. No rule for the calls is given here.

Tested on: rodent carcinogenicity bioassays, tumor incidence
Assay: CCRIS carcinogenicity studies
How it was run: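 NCI-built, expert-reviewed records of carcinogenicity and related test outcomes (mutagenicity, tumor promotion/inhibition) compiled from published and report sources, historical span 1985-2011, not updated.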

c1ccc2c(c1)[nH]c1ccccc12
carcinogen call (Species: MOUSE, Strain/Sex: B6C3F1/FEMALE, Route: ORAL, Dose: 0.15, 0.3, 0.6% IN DIET FOR 96 WK, Dose: 0.15, 0.3, 0.6% IN DIET FOR 96 WK, Tumor Site: Type of Lesion: LIVER: HEPATOCELLULAR CARCINOMA): active; positive | carcinogen call (Species: MOUSE, Strain/Sex: B6C3F1/MALE, Route: ORAL, Dose: 0.15, 0.3, 0.6% IN DIET FOR 96 WK, Dose: 0.15, 0.3, 0.6% IN DIET FOR 96 WK, Tumor Site: Type of Lesion: FORESTOMACH: PAPILLOMA, SQUAMOUS CELL CARCINOMA, LIVER: HEPATOCELLULAR CARCINOMA): active; positive | carcinogen call (Species: MOUSE, Strain/Sex: CD-1/FEMALE, Route: INTRAPERITONEAL, Dose: 0, 1.75 UMOL/MOUSE (TOTAL DOSE) ADMINISTERED DURING DAYS 1, 8, AND 15 OF LIFE (STUDY DURATION: 52 WK)): inactive; negative | carcinogen call (Species: MOUSE, Strain/Sex: CD-1/MALE, Route: INTRAPERITONEAL, Dose: 0, 1.75 UMOL/MOUSE (TOTAL DOSE) ADMINISTERED DURING DAYS 1, 8, AND 15 OF LIFE (STUDY DURATION: 52 WK)): inactive; negative

O=P(O)(O)CCCl
carcinogen call (Species: Mouse, Strain/Sex: CD-1 albino/Female (20 or 50/Group), Route: Oral, Dose: 0, 100, 1000, 10,000 ppm of 70.6-72.1% ethephon for 52 (20/Group) wks and 78 (50/Group) wks, Dose: 0, 100, 1000, 10,000 ppm of 70.6-72.1% ethephon for 52 (20/Group) wks and 78 (50/Group) wks): inactive; negative | carcinogen call (Species: Mouse, Strain/Sex: CD-1 albino/Male (20 or 50/Group), Route: Oral, Dose: 0, 100, 1000, 10,000 ppm of 70.6-72.1% ethephon for 52 (20/Group) wks and 78 (50/Group) wks, Dose: 0, 100, 1000, 10,000 ppm of 70.6-72.1% ethephon for 52 (20/Group) wks and 78 (50/Group) wks): inactive; negative | carcinogen call (Species: Rat, Strain/Sex: Sprague-Dawley CD/Female (30 or 50/Group), Route: Oral, Dose: 0, 300, 3000, 10,000, 30,000 ppm of 70.6-72.1% ethephon for 104 wks, study duration 104 wks, Dose: 0, 300, 3000, 10,000, 30,000 ppm of 70.6-72.1% ethephon for 104 wks, study duration 104 wks): inactive; negative | carcinogen call (Species: Rat, Strain/Sex: Sprague-Dawley CD/Male (30 or 50/Group), Route: Oral, Dose: 0, 300, 3000, 10,000, 30,000 ppm of 70.6-72.1% ethephon for 97 wks, study duration 97 wks, Dose: 0, 300, 3000, 10,000, 30,000 ppm of 70.6-72.1% ethephon for 97 wks, study duration 97 wks): inactive; negative

Oc1ccc(Cl)cc1Cl
carcinogen call (Species: MOUSE, Strain/Sex: B6C3F1/FEMALE, Route: ORAL, Dose: 0, 5000, 10000 PPM IN FEED FOR 103 WK (STUDY DURATION: 104 WK), Dose: 0, 5000, 10000 PPM IN FEED FOR 103 WK (STUDY DURATION: 104 WK)): inactive; negative | carcinogen call (Species: MOUSE, Strain/Sex: B6C3F1/MALE, Route: ORAL, Dose: 0, 5000, 10000 PPM IN FEED FOR 103 WK (STUDY DURATION: 104 WK), Dose: 0, 5000, 10000 PPM IN FEED FOR 103 WK (STUDY DURATION: 104 WK)): inactive; negative | carcinogen call (Species: RAT, Strain/Sex: F344/FEMALE, Route: ORAL, Dose: 0, 2500, 5000 PPM IN FEED FOR 103 WK (STUDY DURATION: 104 WK), Dose: 0, 2500, 5000 PPM IN FEED FOR 103 WK (STUDY DURATION: 104 WK)): inactive; negative | carcinogen call (Species: RAT, Strain/Sex: F344/MALE, Route: ORAL, Dose: 0, 5000, 10000 PPM IN FEED FOR 103 WK (STUDY DURATION: 104 WK), Dose: 0, 5000, 10000 PPM IN FEED FOR 103 WK (STUDY DURATION: 104 WK)): inactive; negative

N#Cc1c(Cl)c(Cl)c(Cl)c(C#N)c1Cl
carcinogen call (Species: MOUSE, Strain/Sex: B6C3F1/FEMALE, Route: ORAL, Dose: 0, 3000, 6000 PPM IN DIET, TWA, Dose: 0, 3000, 6000 PPM IN DIET, TWA): inactive; negative | carcinogen call (Species: MOUSE, Strain/Sex: B6C3F1/MALE, Route: ORAL, Dose: 0, 2688, 5375 PPM IN DIET, TWA, Dose: 0, 2688, 5375 PPM IN DIET, TWA): inactive; negative | carcinogen call (Species: Mouse, Strain/Sex: CD-1/Female (60 per group), Route: Oral, Dose: 0, 750, 1,500, 3,000 ppm in diet for 2 yr, Dose: 0, 750, 1,500, 3,000 ppm in diet for 2 yr, Tumor Site: Type of Lesion: Forestomach: Squamous cell papillomas or carcinomas (0, 2, 6, 5), No dose response): active; positive (ca dpr describes as possible adverse effect; study details not given i | carcinogen call (Species: Mouse, Strain/Sex: CD-1/Male (60 per group), Route: Oral, Dose: 0, 750, 1,500, 3,000 ppm in diet for 2 yr, Dose: 0, 750, 1,500, 3,000 ppm in diet for 2 yr, Tumor Site: Type of Lesion: Kidney: renal tubular adenoma or carcinoma (0, 6, 4, 4). Forestomach: Squamous cell papillomas or carcinomas (0, 2, 5, 2): active; positive without dose response (ca dpr describes as possible adverse effect); st | carcinogen call (Species: RAT, Strain/Sex: OSBORNE-MENDEL/FEMALE, Route: ORAL, Dose: 0, 5063, 10126 PPM IN DIET, TWA, Dose: 0, 5063, 10126 PPM IN DIET, TWA, Tumor Site: Type of Lesion: KIDNEY: ADENOMA OR CARCINOMA (NOS) OR TUBULAR CELL ADENOMA OR TUBULAR CELL ADENOCARCINOMA): active; positive | carcinogen call (Species: RAT, Strain/Sex: OSBORNE-MENDEL/MALE, Route: ORAL, Dose: 0, 5063, 10126 PPM IN DIET, TWA, Dose: 0, 5063, 10126 PPM IN DIET, TWA, Tumor Site: Type of Lesion: KIDNEY: CARCINOMA (NOS) OR TUBULAR CELL ADENOMA OR TUBULAR CELL ADENOCARCINOMA OR ADENOCARCINOMA OR PAPILLARY ADENOMA): active; positive | carcinogen call (Species: Rat, Strain/Sex: Fischer 344/Female (55 per group), Route: Oral, Dose: 0, 1.8, 3.8, 15.2, 183 mg/kg/day in diet for 125 wks, Dose: 0, 1.8, 3.8, 15.2, 183 mg/kg/day in diet for 125 wks, Tumor Site: Type of Lesion: Kidney: Renal tubular adenomas and carcinomas (0, 0, 0, 0, 32 in 53-55 animals). Forestomach: Papillomas and carcinomas): active; positive (study details not given in source) | carcinogen call (Species: Rat, Strain/Sex: Fischer 344/Male (55 per group), Route: Oral, Dose: 0, 1.8, 3.8, 15.2, 183 mg/kg/day in diet for 99 wks (high dose) or 111 wk (all others), Dose: 0, 1.8, 3.8, 15.2, 183 mg/kg/day in diet for 99 wks (high dose) or 111 wk (all others), Tumor Site: Type of Lesion: Kidney: Renal tubular adenomas and carcinomas (1, 1, 1, 4, 23 in 53-55 animals) Forestomach: Papillomas and carcinomas (): active; positive (study details not given in source) | carcinogen call (Species: Rat, Strain/Sex: Sprague-Dawley/Female (50 per group), Route: Oral, Dose: 0, 15, 60, 240, 1,200 mg/kg/day in diet for 2 yr, Dose: 0, 15, 60, 240, 1,200 mg/kg/day in diet for 2 yr, Tumor Site: Type of Lesion: Forestomach: Papillomas or carcinomas (0, 0, 0, 2, 1), Not significant): inactive; negative (ca dpr describes as possible adverse effect; study details not given i | carcinogen call (Species: Rat, Strain/Sex: Sprague-Dawley/Male (50 per group), Route: Oral, Dose: 0, 15, 60, 240, 1,200 mg/kg/day in diet for 2 yr, Dose: 0, 15, 60, 240, 1,200 mg/kg/day in diet for 2 yr, Tumor Site: Type of Lesion: Forestomach: Papillomas or carcinomas (0, 0, 0, 0, 3), Borderline significance): active; positive at highest dose (ca dpr describes as possible adverse effect; study det
